Data as given in ChEMBL document CHEMBL1132640, “Structure-based design, synthesis, and X-ray crystallography of a high-affinity antagonist of the Grb2-SH2 domain containing an asparagine mimetic” (J Med Chem, 1999).

Biological target: Growth factor receptor-bound protein 2 (Homo sapiens, UniProt P62993)
Experiment: Inhibition of Grb2-SH2 domain binding to phospho-EGF receptor intracellular C-terminal domain
Format: cell-based

Sequence of Growth factor receptor-bound protein 2 (P62993 whole entry, the tested form may be a part): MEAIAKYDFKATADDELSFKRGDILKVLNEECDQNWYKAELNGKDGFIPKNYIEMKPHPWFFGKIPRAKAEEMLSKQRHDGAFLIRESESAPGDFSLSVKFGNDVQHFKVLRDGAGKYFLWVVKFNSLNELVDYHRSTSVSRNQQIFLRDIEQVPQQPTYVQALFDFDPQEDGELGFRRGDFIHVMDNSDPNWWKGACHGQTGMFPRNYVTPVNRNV

Row | SMILES | IC50
1 | NC(=O)[C@@H]1CCC=C[C@@H]1NC(=O)C1(NC(=O)[C@H](Cc2ccc(OP(=O)(O)O)cc2)NC(=O)OCc2cccc(N)c2)CCCCC1 | > 5000 nM
2 | NC(=O)C[C@H](NC(=O)C1(NC(=O)[C@H](Cc2ccc(OP(=O)(O)O)cc2)NC(=O)OCc2cccc(N)c2)CCCCC1)C(N)=O | 1 nM
